The test system of assay [1] is Niemann Pick type-C mice. Nature of the assay: Allopregnanolone, T0901317 and their combination in NP-C mice: lifespan, rotorod. The assay is classed as in vivo, mouse. The conditions noted are these: for lifespan (mean): allopregnanolone 25 mg/kg s.c. single injection at P7, T0901317 50 mg/kg/day from day 18; for onset of symptoms: rotorod trials; for age at which loss of motor function begins: untreated begin at 35 days. On the procedure:
(§1) The materials and methods used for the following experiments have been described in Griffin L. D., et al., Nature Medicine 10: 704-711 (2004). This reference is hereby incorporated by reference in its entirety.
Mice were given a single injection of allopregnanolone, prepared in 20% β-cyclodextrin in phosphate buffered saline, at a concentration of 25 mg/kg. The injection was on day 7 of life (P7, postnatal day 7). T0901317 treatment was started on day 18 (50 mg/kg/day) in chow. Efficacy was assessed by measuring body weight, and neurological symptoms, using a rotorod test. Efficacy was further assessed by measuring lifespan.

The test system of assay [2] is cerebellar astrocytes from P3 cerebella. Nature of the assay: Neurotrophin secretion in cultured cerebellar astrocytes (ELISA). Type of assay: cell-based, mouse. On the procedure: as §1
Pure cultures of cerebellar astrocytes from P3 cerebella were cultured for 1-3 days±10 nM allopregnanolone, and NGF was assayed every 24 hr by ELISA.
For orientation: An ELISA detects its analyte on a solid surface through an enzyme-linked reagent.

For assay [3], the system named is gangliosides GM1, GM2, and GM3 in the brain. Nature of the assay: Ganglioside accumulation in brain of allopregnanolone-treated Niemann Pick type-C mice. Type of assay: in vivo, mouse. On the procedure: as §1
Mice were given a single injection of allopregnanolone, prepared in 20% βcyclodextrin in phosphate buffered saline, at a concentration of 25 mg/kg. The injection was on day 7 of life (P7, postnatal day 7). Concentrations of gangliosides GM1, GM2, GM3, were measured as well as other lipids such as ceramides and cerebrosides.

Assay [4] deals with brain cytokines (TGFβ, IL1β). Description: Brain cytokine concentrations by ELISA in NP-C mice. Type of assay: in vivo, mouse. Particulars: adult NP-C mice treated at day 7, vs untreated NP-C mice. The procedure: as §1
(§2) Mice were again given a single injection of allopregnanolone, prepared in 20% β-cyclodextrin in phosphate buffered saline, at a concentration of 25 mg/kg. The injection was on day 7 of life (P7, postnatal day 7). Inflammation was measured by assessing the number of CD4^+ CD8^+, MAC1^+, and MHCII^+ cells, using immunocytochemistry. Concentrations of brain cytokines were also measured, using by enzyme linked immunoabsorbent (ELISA) assays.

The subject of assay [5] is CD4+, CD8+, MAC1+ and MHCII+ cells in brain. Nature of the assay: Immunocytochemistry of inflammatory cells in brains of NP-C mice. The assay is classed as in vivo, mouse. The procedure: as §1, §2
For assay [6], the system named is Niemann Pick type-C mice. Nature of the assay: Ganaxolone treatment of NP-C mice: lifespan, weight, locomotor skills. Type of assay: in vivo, mouse. On the procedure: as §1
Mice were given a single injection of ganaxolone, prepared in 20% β-cyclodextrin in phosphate buffered saline, at a concentration of 25 mg/kg. The injection was on day 7 of life (P7, postnatal day 7).
Efficacy of treatment was assessed by measuring body weight, neurological symptoms, using behavioral tests such as wire hang test, rope climbing test, walking on an mesh inclined plane, and walking on a horizontal surface, measuring coordination, use of all 4 limbs, posture, tail placement. Efficacy was also assessed by measuring lifespan. Results of these experiments are summarized below, and are shown graphically in FIG. 7.

The mark [7] stands for this setting: adult (60-day old) NP-C mice treated at P7.

“Also recorded” adds a separate entry of the source.

On to `O=S(=O)(c1ccccc1)N(CC(F)(F)F)c1ccc(C(O)(C(F)(F)F)C(F)(F)F)cc1` [T0901317], for which, in assay [1], the “lifespan (mean)” value was 80 days and the onset of symptoms result is reported as “delayed”. For the same molecule, in assay [1] (rotorod), the “course of loss of motor function / decline in symptoms” value is given as “blunted” and the “age at which loss of motor function begins” value worked out at 42 days.

For `CC(=O)[C@H]1CC[C@H]2[C@@H]3CC[C@H]4C[C@H](O)CC[C@]4(C)[C@H]3CC[C@]12C` [allopregnanolone], the “production of NGF” value in assay [2] (NP-C mouse cerebellar astrocytes cultured 1-3 days with 10 nM, vs untreated control cells) is reported as “increases”. In addition, the “concentrations of the neurotrophins NGF and BDNF” value in assay [2] (cerebellar cells in culture) was “increases”. Moreover, in assay [3] (NP-C mice, single injection 25 mg/kg at P7, compared with untreated controls), the “amount of the gangliosides GM1, GM2, and GM3 in brain” value was “reduced”. In assay [3] (NP-C mice, treatment at postnatal day 7 compared with postnatal day 10), the “degree of reduction in the gangliosides by timing of treatment” value is “greater reduction”. In addition, in assay [3] (setting [7]), the “GM1 or GM2 immunostaining, cerebellum” value is “only slight immunostaining” and the “GM1 or GM2 immunostaining, thalamus/hypothalamus” value is “only very slight immunostaining”. Also, in assay [1], the “lifespan (mean)” value was 112 days and the onset of symptoms entry is on record as “delayed”. The “age at which loss of motor function begins” value in assay [1] (rotorod) is 49 days. Moreover, the “brain cytokine concentrations (TGFβ and IL1β)” value in assay [4] was “substantial reduction; also recorded: substantially reduced”. For the same molecule, the “apoptotic neurons in the brain” value in assay [5] (NP-C mice, 25 mg/kg single injection at P7) is “substantial reduction”. For the same molecule, the “number of T cells and activated macrophages in brain” value in assay [5] (NP-C mice, 25 mg/kg single injection at P7, vs untreated controls) is reported as “significant reduction”. In assay [5] (setting [7]), the “increase in immunostaining for CD4 and CD8 T cells, cerebellum” value is “absent”; the “increase in immunostaining for CD4 and CD8 T cells, thalamus/hypothalamus” value was “absent”. Further, the “immunostaining for MAC1 and MHC II (activated macrophages), thalamus” value in assay [5] (adult (60-day old) NP-C mice treated at day 7, vs untreated NP-C mice) was “substantially reduced”.

Consider `CC(=O)[C@H]1CC[C@H]2[C@@H]3CC[C@H]4C[C@](C)(O)CC[C@]4(C)[C@H]3CC[C@]12C` [ganaxolone], for which the “weight loss and tremor” value in assay [6] is recorded as “delays”. The “lifespan (average)” value in assay [6] (single injection 25 mg/kg at P7, untreated 67 (±10) days) turned out to be 118 days. In assay [6] (single injection at P7, untreated 3-4 weeks), the “duration of the loss of motor function” value is recorded as 5 weeks. Also, the “age at which loss of motor function (locomotion and coordination) begins” value in assay [6] (single injection at P7, untreated begin at 6-7 weeks) is given as 10 weeks. The “age at which weight loss begins” value in assay [6] (single injection at P7, untreated begin at 6 weeks) was determined as 10 weeks. Besides, the “rate of weight loss” value in assay [6] (single injection at P7, vs untreated NP-C mice) is recorded as “more slowly”.

The values are drawn from US9597336B2, “Therapy for treatment of chronic degenerative brain diseases and nervous system injury” (THE REGENTS OF THE UNIVERSITY OF CALIFORNIA, priority 2004, dated 2017).
